This is an account of results in patent US20240343735A1, “Hydrochloride Salt of Inupadenant, Pharmaceutical Compositions and Methods of Use Thereof” (iTeos Belgium SA, priority 2021, published 2024).

What all share (format): physicochemical
Series [1] in a line: Dynamic vapor sorption (DVS). The procedure:
10-20 mg of sample was placed into a mesh vapor sorption balance pan and loaded into a DVS Intrinsic or Advantage dynamic vapor sorption balance by Surface Measurement Systems. The sample was subjected to a ramping profile from 40-90% relative humidity (RH) at 10% increments, maintaining the sample at each step until a stable weight had been achieved (dm/dt 0.004%, minimum step length 30 minutes, maximum step length 500 minutes) at 25° C. After completion of the sorption cycle, the sample was dried using the same procedure to 0% RH and then a second sorption cycle back to 40% RH. Two cycles were performed. The weight change during the sorption/desorption cycles were plotted, allowing for the hygroscopic nature of the sample to be determined. XRPD analysis (XRPD Method A) was then carried out on any solid retained.
DVS isotherms were collected using a Surface Measurement Systems Ltd. DVS-1 No Video, equipment #2126. The sample was loaded into balance pan, typically 10-30 mg, and equilibrated at 0% RH. After the material has dried the RH was increased with 10% per step for 1 hour per increment, ending at 95% RH. After completion of the sorption cycle, the sample was dried using the same method. The software used for data collection is DVSWin v3.01 No Video. Data analysis was performed using DVS Standard Analysis Suite v6.3.0 (Standard). […]

Series [2] in a line: Salt disproportionation study in unbuffered water. To be noted: ambient temperature, 24 hours.
The nature of series [3]: Dissolution rate assessment in pH 1.2, 0.2 M HCl/KCl buffer. Conditions: for Conc. mg/mL in pH 1.2 HCl/KCl: ca. 37° C. The procedure:
1000 μL of each sample was drawn from the slurry layer by automated pipette at 15, 30, 60, 120, 240 and 1440 minute timepoints. • These aliquots were spun down through a centrifuge filter, diluted 300 μl:300 μl with the method specified diluent and placed in total recovery vials. The solids were retained for XRPD analysis. • The solubility of the material in the buffer was determined by HPLC analysis (duplicate injections) (Example 1, HPLC Method C) against verified reference solutions of the source material at known concentrations.

Series [4] in a line: 7-day stability assessment of amorphous inupadenant hydrochloride. The procedure: A 7-day stability assessment of amorphous inupadenant hydrochloride was carried out as follows: (1) 20 mg amorphous inupadenant was added to 3×2 mL glass vials; (2) the samples were then stored under the following conditions—(i) 40° C./75% RH—open vial, (ii) 80° C.—closed vial, and (iii) ambient light—open vial; (3) Solids were stored for 1 week under the above conditions with XRPD analysis (Example 1, XRPD Method A) and HPLC purity analysis (Example 1, HPLC Method A) being carried out post-storage.

Series [5] can be described thus: 7-day stability assessment of Form 2 inupadenant hydrochloride.
A short description of series [6]: Solubility assessment in solvents. To be noted: 1,4-dioxane, water, tert-butyl alcohol, THF, ethyl acetate, acetone, methanol, DCM; even at 20 mg/mL with gentle heating. The procedure:
0.5-1 mL of solvent was added to each vial and the samples were manually shaken at ambient temperature. […] The solvents assessed in this solubility study were 1,4-dioxane, water, tert-butyl alcohol, THF, ethyl acetate, acetone, methanol, and DCM.

The mark [7] stands for this setting: 7 days, 40° C. + 75% RH, open vial.
Setting [8] is: 7 days, ambient light, open vial.

With `C[S@+]([O-])CCOc1cc(N2CCN(CCn3c(=O)sc4c3nc(N)n3nc(-c5ccco5)nc43)CC2)c(F)cc1F.Cl.O` [Form 2 inupadenant hydrochloride], the “DVS total mass increase” value in series [1] (at 90% RH, 25° C., DVS Method A) is given as 3.8 wt. %. The “solid form (XRPD) after slurrying in water” value in series [2] was “no changes in the solid form”. Moreover, the “solubility in pH 1.2 0.2 M HCl/KCl buffer” value in series [3] (37° C., overnight) is recorded as “low”. The “Conc. mg/mL in pH 1.2 HCl/KCl” value is on record as 0.0010 mg/mL in series [3] (15 min); 0.0013 mg/mL in series [3] (30 min); 0.0014 mg/mL in series [3] (60 min); 0.0023 mg/mL in series [3] (120 min); 0.0029 mg/mL in series [3] (240 min); 0.0035 mg/mL in series [3] (1440 min). For the same compound, in series [3] (pH 1.2 HCl/KCl buffer), the “XRPD of solids recovered from each timepoint” value is recorded as “consistent with Form 2 inupadenant hydrochloride”. For the same compound, the “change of solid purity (HPLC) after 7-day stability assessment” value in series [4] (all stability conditions) and in series [5] (all stability conditions) was “no changes to solid purity” each time. Also, the “HPLC (Purity, % area)” value worked out at 99.64 % area in series [5] (setting [7]); 99.66 % area in series [5] (7 days, 80° C., closed vial); 99.66 % area in series [5] (setting [8]); 99.61 % area in series [5] (input material). For the same compound, the “XRPD Analysis” value in series [5] (setting [7]) is “Form 2 inupadenant”; in series [5] (7 days, 80° C., closed vial), “Form 2 inupadenant”; in series [5] (setting [8]), “Form 2 inupadenant”; in series [5] (input material) it was “Form 2 inupadenant”. The “change of solid form (XRPD) after 7-day stability assessment” value in series [5] (all stability conditions) is listed as “no changes to the solid form”. Besides, the “solubility in solvent systems” value in series [6] is on record as “insoluble”.

Take `C[S@+]([O-])CCOc1cc(N2CCN(CCn3c(=O)sc4c3nc(N)n3nc(-c5ccco5)nc43)CC2)c(F)cc1F.Cl` [Form 1 inupadenant hydrochloride]: the “DVS total mass uptake” value in series [1] (at 95% RH, DVS Method B) worked out at 5 wt. %.

For the compound `C[S@+]([O-])CCOc1cc(N2CCN(CCn3c(=O)sc4c3nc(N)n3nc(-c5ccco5)nc43)CC2)c(F)cc1F.Cl` [amorphous inupadenant hydrochloride], the “HPLC (Purity, % area)” value in series [4] (setting [7]) came to 99.64 % area; in series [4] (7 days, 80° C., closed vial) it was 99.66 % area; in series [4] (setting [8]), 99.66 % area; in series [4] (input material), 99.61 % area. Moreover, the “XRPD Analysis” value is given as “Form 2 inupadenant” in series [4] (setting [7]); “Form 2 inupadenant” in series [4] (7 days, 80° C., closed vial); “Form 2 inupadenant” in series [4] (setting [8]); “Predominantly amorphous” in series [4] (input material). Besides, in series [4] (all stability conditions), the “change of solid form (XRPD) after 7-day stability assessment” value was “crystallized into Form 2 inupadenant hydrochloride”.
